The source of these data is patent publication US9132108B2, “Pharmaceutical composition for ameliorating and/or preventing leptin resistance, and use thereof” (HIROSHIMA UNIVERSITY, priority 2009, dated 2015).

Data set [1] has as its system mice given high-fat diet (leptin resistance). Put plainly: Leptin-induced inhibition of food intake (Example 7). The class given is in vivo, mouse. The conditions noted are these: Group 4 (high-fat diet+flurbiprofen); 10 mg/kg per day orally, 8 weeks; leptin 0.5 mg/kg i.p.; no significant difference vs Group 1. How it is done:
Specifically, 4 weeks-old male mice (C57BL/6 Cr Slc) were divided into four groups each consisting of 6-8 mice. Mice of individual groups were given diets as follows for 8 weeks similarly with Example 5. • Group 1: Normal diet (10 kcal % fat) only • Group 2: High-fat diet (60 kcal % fat) only • Group 3: Normal diet+flurbiprofen • Group 4: High-fat diet+flurbiprofen
Flurbiprofen (F8514, produced by SIGMA) was diluted with drinking water so that the administration amount of flurbiprofen would be 10 mg/kg per day, and was orally administered to the mice in the form of drinking water.
FIG. 11 is a drawing showing the procedure of the test in Example 7. […] The mice were then habituated for 3 days. Day 0 was the date when the isolation started. In order to eliminate the influence of injection on feeding behavior, 5 mL/kg of physiological saline was intraperitoneally (i.p.) administered as dummy on Days 3 and 4. […]
Subsequently, 0.5 mg/kg of leptin (498-OB, rmLeptin, produced by R&D systems) was intraperitoneally (i.p.) administered on Day 6 and the amount of food intake up to 24 hours after the leptin administration was measured on Day 7. Using the ratio of the amount of food intake on Days 6 and 7 to the amount of food intake on Days 5 and 6 as a reference index, what influence leptin had on the amount of food intake (rate of change in amount of food intake) was analyzed. […]

For data set [2] the following is noted: marketed non-steroidal anti-inflammatory agent; cited from earlier work.
For data set [3], the system named is mice given high-fat diet (leptin resistance). Put plainly: Body weight of mice given high-fat or normal diet with flurbiprofen for 8 weeks (Example 1). In kind it is in vivo, mouse. The conditions noted are these: approximately 10 mg/kg per day orally in drinking water. How it is done:
In the Examples, 4 weeks-old male mice (C57BL/6 Cr Slc, SHIMIZU Laboratory Supplies Co., Ltd.) were used as laboratory animals. All the animal tests in the Examples were carried out according to the NIH Guide for Care and Use of Laboratory Animals.
Mice were divided into four groups each consisting of 7-8 mice. Mice of individual groups were given diets as follows. • Group 1: Normal diet (10 kcal % fat, D12450B, produced by Research Diets, Inc.) only • Group 2: High-fat diet (60 kcal % fat, D12492, produced by Research Diets, Inc.) only • Group 3: Normal diet+flurbiprofen (F8514, produced by SIGMA) • Group 4: High-fat diet+flurbiprofen (F8514, produced by SIGMA)
Flurbiprofen was diluted with drinking water so that the administration amount of flurbiprofen would be approximately 10 mg/kg per day, and was orally administered to the mice in the form of drinking water. Thereafter, the mice were weighed every 7 days.
FIG. 3 is a graph showing changes in body weights of the mice of individual groups during 8 weeks after flurbiprofen administration. Values in the graph of FIG. 3 are averages of body weights of mice of each group (± their standard deviations) (n=7-8 with respect to each group). Further, statistic analysis was carried out using t-test.

Data set [4] relates to mice. Put plainly: Amount of mice water intake (Example 12). In kind it is in vivo, mouse. The conditions noted are these: 10 mg/kg per day orally in drinking water; normal or high-fat diet. How it is done: In order to measure the amount of mice water intake, 4 weeks-old male mice (C57BL/6 Cr Slc) were divided into four groups (each consisting of 7-8 mice), were isolated from one another so that there would be one mouse per cage. The mice were then habituated for 2 days. The amount of mice water intake was measured every 24 hours for 4 days from the forenoon on the second day of the habituation, and the amount of mice water intake for 4 days was summed up. • Group 1: Normal diet (10 kcal % fat) only • Group 2: High-fat diet (60 kcal % fat) only • Group 3: Normal diet+flurbiprofen • Group 4: High-fat diet+flurbiprofen Flurbiprofen (F8514, produced by SIGMA) was diluted with drinking water so that the administration amount of flurbiprofen would be 10 mg/kg per day, and was orally administered to the mice in the form of drinking water. FIG. 18 is a graph showing the result of the measurement of the amount of mice water intake. Values in the graph of FIG. 18 are averages of the total amounts (g) of water intake of mice of each group for 4 days (± their standard deviations) (n=7-8 with respect to each group). Further, statistic analysis was carried out using t-test.

As to `C[C@@H](C(=O)O)c1ccc(-c2ccccc2)c(F)c1` [flurbiprofen], in data set [1], the “rate of change in amount of food intake after leptin administration” value is “reduced food intake caused by leptin”. Moreover, the “dependence and development of resistance” value in data set [2] was “no dependence on flurbiprofen or no development of resistance to flurbiprofen is observed”. Moreover, the body weight entry is “no significant difference in body weight” in data set [3] (Group 3 (normal diet+flurbiprofen) vs Group 1 (normal diet only)) and “prevented an increase in body weight” in data set [3] (Group 4 (high-fat diet+flurbiprofen) vs Group 2 (high-fat diet only), significance level <5%). Moreover, in data set [4], the “total amount of water intake for 4 days” value is listed as “constant regardless of whether flurbiprofen was administered or not”.
